This series in a line: Solubility determination in aqueous vehicle (0.9% NaCl and 0.5% polysorbate 80), filtrate analyzed by HPLC. In kind it is physicochemical. Here is the method:
Sample preparation: excess Type 8 was added to the vehicle containing 0.9% NaCl and 0.5% polysorbate 80 to achieve ˜3 mg/mL suspension. The mixture was sonicated for 15 minutes, then agitated at 500 rpm at room temperature. At 24 hours, the mixture was filtrated, and filtrate was analyzed by HPLC to determine the solubility. • Instrument: Agilent 1260 • Column: ACE ultracore super C18 (100 mm*4.6 mm*2.5 μm) (P/N: CORE-25A-1046U) • Wavelength: 234 nm • Column Temperature: 20° C. • Column Flow: 1.0 mL/min • Acquisition time: 25 min • Injection volume: 5 μL • Retention time: ˜14 min • Mobile Phase A: 5 mM (NH4)2HPO4 and 5 mM of NH4H2PO4 in H2O • Mobile Phase B: ACN [table] The solubility of Form C (hemihydrate as disclosed in WO 2018/096170) was determined in the same media used to determine the solubility of Type 8 as described above. Sample preparation: excess Form C was added to the vehicle containing 0.9% NaCl and 0.5% polysorbate 80. The mixture was sonicated for 15 minutes, then agitated at 500 rpm at room temperature. At 24 hours, the mixture was filtrated, and filtrate was analyzed by HPLC to determine the solubility.

Each structure is given as a SMILES string. Converted amounts (≈) assume the structure as drawn.

Consider `Cc1nc(N(C)C(=O)Cc2ccc(-c3ccccn3)cc2)sc1S(N)(=O)=O` [Type 8, N-methyl-N-(4-methyl-5-sulfamoylthiazol-2-yl)-2-(4-(pyridin-2-yl)phenyl) acetamide], for which the solubility at 24 h (aqueous vehicle (0.9% NaCl and 0.5% polysorbate 80), aqueous with cosolvent or surfactant or cyclodextrin, thermodynamic from solid, RT, 0.9% NaCl and 0.5% polysorbate 80) was about 70.7 µg/mL (≈ 176 µM). For the same compound, where the note is “room temperature, aqueous media containing 0.9% NaCl and 0.5% polysorbate 80, at 24 hours”, the solubility entry is listed as “around 70.7 μg/mL”.

(Values after patent US20260085068A1, “A NOVEL CRYSTALLINE FORM OF PRITELIVIR” (Assembly Biosciences, Inc., priority 2022, published 2026).)
